Measurements taken from ChEMBL document CHEMBL6071168, “Discovery of novel fructose-1,6-bisphosphatase inhibitors bearing benzimidazole scaffold using a dual-ligand molecular docking model” (Eur J Med Chem, 2024).
Active and inactive are the calls of the source. No cut-off for these calls is given here.

How the values were obtained:
[1] = species: Homo sapiens; test: Inhibition of Fructose-1,6-bisphosphatase (unknown origin) preincubated for 10 min followed by addition of NADP+, PGI,G6PDH at 10 uM measured after 40 min by absorption based analysis relative to control; settings: time 50.0 min
[2] = target: T1, Cytochrome P450 1A2 (Homo sapiens, UniProt P05177); test: Inhibition of CYP1A2 (unknown origin) incubated for 30 min in presence of NADPH by LC-MS/MS analysis; assay type: ADME
T1 sequence (P05177 whole entry): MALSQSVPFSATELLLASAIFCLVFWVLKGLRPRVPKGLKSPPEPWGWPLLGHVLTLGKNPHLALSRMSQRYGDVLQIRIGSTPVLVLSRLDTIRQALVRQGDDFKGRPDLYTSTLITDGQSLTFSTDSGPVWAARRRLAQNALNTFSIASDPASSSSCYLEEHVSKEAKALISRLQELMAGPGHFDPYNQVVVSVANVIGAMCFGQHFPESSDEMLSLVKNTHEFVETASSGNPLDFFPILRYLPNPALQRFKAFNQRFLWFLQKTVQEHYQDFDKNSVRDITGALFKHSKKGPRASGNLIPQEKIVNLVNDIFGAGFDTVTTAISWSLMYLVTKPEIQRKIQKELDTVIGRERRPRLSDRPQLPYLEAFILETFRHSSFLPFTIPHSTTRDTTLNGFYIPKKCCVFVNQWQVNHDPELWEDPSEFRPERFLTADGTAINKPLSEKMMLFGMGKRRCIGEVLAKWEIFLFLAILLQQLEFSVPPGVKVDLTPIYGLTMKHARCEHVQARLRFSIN

[3] = Inhibition of Fructose-1,6-bisphosphatase (unknown origin); design: species or system Homo sapiens
[4] = Inhibition of Fructose-1,6-bisphosphatase (unknown origin) preincubated for 10 min followed by addition of NADP+, PGI,G6PDH and measured after 40 min by absorption based analysis; design: species or system Homo sapiens
[5] = target: Cytochrome P450 2C9 (Homo sapiens, UniProt P11712); test: Inhibition of CYP2C9 (unknown origin) incubated for 30 min in presence of NADPH by LC-MS/MS analysis; assay type: ADME
Sequence of Cytochrome P450 2C9 (P11712 whole entry): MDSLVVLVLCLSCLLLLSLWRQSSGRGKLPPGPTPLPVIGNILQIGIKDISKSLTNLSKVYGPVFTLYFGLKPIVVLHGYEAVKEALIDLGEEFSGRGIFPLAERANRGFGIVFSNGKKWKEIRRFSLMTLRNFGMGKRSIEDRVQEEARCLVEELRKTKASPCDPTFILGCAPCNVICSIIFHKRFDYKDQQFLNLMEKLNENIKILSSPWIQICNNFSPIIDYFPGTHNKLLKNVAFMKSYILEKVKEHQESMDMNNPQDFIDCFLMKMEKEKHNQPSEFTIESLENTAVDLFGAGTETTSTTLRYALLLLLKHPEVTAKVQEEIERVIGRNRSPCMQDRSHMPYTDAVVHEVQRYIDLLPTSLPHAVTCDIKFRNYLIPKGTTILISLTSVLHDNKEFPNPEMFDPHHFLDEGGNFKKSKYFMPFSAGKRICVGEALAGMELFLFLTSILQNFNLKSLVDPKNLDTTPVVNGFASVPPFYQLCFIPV

[6] = target: Cytochrome P450 3A5 (Homo sapiens, UniProt P20815); test: Inhibition of CYP3A5 (unknown origin) incubated for 30 min in presence of NADPH by LC-MS/MS analysis; assay type: ADME
Sequence of Cytochrome P450 3A5 (P20815 whole entry): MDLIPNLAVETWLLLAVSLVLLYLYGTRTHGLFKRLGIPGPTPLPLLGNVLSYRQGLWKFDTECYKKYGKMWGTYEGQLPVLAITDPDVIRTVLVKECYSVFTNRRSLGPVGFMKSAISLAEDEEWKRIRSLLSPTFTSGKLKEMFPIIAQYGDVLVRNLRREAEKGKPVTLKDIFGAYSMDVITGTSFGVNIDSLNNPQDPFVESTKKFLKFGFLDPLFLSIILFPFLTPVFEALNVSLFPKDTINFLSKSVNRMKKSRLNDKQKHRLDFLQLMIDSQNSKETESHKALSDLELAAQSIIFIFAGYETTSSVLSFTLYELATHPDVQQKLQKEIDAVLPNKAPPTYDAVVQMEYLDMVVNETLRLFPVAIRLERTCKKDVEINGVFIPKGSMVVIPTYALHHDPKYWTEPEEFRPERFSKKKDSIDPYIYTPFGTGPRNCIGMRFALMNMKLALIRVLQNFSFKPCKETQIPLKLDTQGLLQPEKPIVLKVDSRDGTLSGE

[7] = MRT (0 to infinity) in ICR mouse at 5 mg/kg, iv by HPLC-MS/MS analysis; assay type: ADME, organism-based; settings: in vivo
[8] = AUC (0 to t) in ICR mouse at 100 mg/kg, po by HPLC-MS/MS analysis; assay type: ADME, organism-based; settings: in vivo
[9] = Cmax in ICR mouse at 100 mg/kg, po by HPLC-MS/MS analysis; assay type: ADME, organism-based; settings: in vivo
[10] = tested on: Mus musculus; test: Anti-diabetic activity against 16 hrs fasted ICR mouse assessed as reduced blood glucose level at 150 mg/kg, po measured after 30 to 90 min by oral pyruvate tolerance test; assay type: functional, organism-based; settings: time 30-90 min
[11] = AUC (0 to t) in ICR mouse at 5 mg/kg, iv by HPLC-MS/MS analysis; assay type: ADME, organism-based; settings: in vivo
[12] = Half life in ICR mouse at 100 mg/kg, po by HPLC-MS/MS analysis; assay type: ADME, organism-based; settings: in vivo
[13] = AUC (0 to infinity) in ICR mouse at 100 mg/kg, po by HPLC-MS/MS analysis; assay type: ADME, organism-based; settings: in vivo
[14] = target: Cytochrome P450 2C19 (Homo sapiens, UniProt P33261); test: Inhibition of CYP2C19 (unknown origin) incubated for 30 min in presence of NADPH by LC-MS/MS analysis; assay type: ADME
Sequence of Cytochrome P450 2C19 (P33261 whole entry): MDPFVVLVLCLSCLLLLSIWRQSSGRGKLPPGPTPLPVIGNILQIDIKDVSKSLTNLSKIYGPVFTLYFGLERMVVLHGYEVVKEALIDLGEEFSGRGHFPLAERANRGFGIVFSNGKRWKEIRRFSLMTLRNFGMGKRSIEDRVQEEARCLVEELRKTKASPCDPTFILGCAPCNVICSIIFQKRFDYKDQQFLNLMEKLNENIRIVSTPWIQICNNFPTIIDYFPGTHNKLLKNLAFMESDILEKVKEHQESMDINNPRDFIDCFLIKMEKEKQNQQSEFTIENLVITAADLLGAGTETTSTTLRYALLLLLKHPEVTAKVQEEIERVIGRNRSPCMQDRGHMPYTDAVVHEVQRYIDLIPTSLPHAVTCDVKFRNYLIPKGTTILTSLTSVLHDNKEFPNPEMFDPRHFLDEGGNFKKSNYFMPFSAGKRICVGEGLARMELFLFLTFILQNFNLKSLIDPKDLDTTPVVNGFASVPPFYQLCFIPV

[15] = Tmax in ICR mouse at 100 mg/kg, po by HPLC-MS/MS analysis; assay type: ADME, organism-based; settings: in vivo
[16] = Clearance in ICR mouse at 5 mg/kg, iv by HPLC-MS/MS analysis; assay type: ADME, organism-based; settings: in vivo
[17] = MRT (0 to t) in ICR mouse at 100 mg/kg, po by HPLC-MS/MS analysis; assay type: ADME, organism-based; settings: in vivo
[18] = Oral Bioavailability in ICR mouse at 100 mg/kg by HPLC-MS/MS analysis; assay type: ADME, organism-based; settings: in vivo
[19] = target: Cytochrome P450 2D6 (Homo sapiens, UniProt P10635); test: Inhibition of CYP2D6 (unknown origin) incubated for 30 min in presence of NADPH by LC-MS/MS analysis; assay type: ADME
Sequence of Cytochrome P450 2D6 (P10635 whole entry): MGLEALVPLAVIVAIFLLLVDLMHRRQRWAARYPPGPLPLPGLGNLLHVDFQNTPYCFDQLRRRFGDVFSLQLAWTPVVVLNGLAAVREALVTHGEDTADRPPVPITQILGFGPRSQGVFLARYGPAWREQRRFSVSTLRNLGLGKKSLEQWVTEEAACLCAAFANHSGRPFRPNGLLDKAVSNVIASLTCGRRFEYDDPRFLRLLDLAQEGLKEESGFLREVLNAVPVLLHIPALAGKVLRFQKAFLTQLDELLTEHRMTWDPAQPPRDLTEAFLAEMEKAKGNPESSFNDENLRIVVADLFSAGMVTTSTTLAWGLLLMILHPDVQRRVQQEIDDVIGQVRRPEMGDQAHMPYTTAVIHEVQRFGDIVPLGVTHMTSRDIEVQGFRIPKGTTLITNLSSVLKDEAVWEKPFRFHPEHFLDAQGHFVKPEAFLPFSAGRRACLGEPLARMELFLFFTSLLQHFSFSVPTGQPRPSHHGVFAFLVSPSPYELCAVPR

[20] = target: Cytochrome P450 3A4 (Homo sapiens, UniProt P08684); test: Inhibition of CYP3A4 (unknown origin) incubated for 30 min in presence of NADPH by LC-MS/MS analysis; assay type: ADME
Sequence of Cytochrome P450 3A4 (P08684 whole entry): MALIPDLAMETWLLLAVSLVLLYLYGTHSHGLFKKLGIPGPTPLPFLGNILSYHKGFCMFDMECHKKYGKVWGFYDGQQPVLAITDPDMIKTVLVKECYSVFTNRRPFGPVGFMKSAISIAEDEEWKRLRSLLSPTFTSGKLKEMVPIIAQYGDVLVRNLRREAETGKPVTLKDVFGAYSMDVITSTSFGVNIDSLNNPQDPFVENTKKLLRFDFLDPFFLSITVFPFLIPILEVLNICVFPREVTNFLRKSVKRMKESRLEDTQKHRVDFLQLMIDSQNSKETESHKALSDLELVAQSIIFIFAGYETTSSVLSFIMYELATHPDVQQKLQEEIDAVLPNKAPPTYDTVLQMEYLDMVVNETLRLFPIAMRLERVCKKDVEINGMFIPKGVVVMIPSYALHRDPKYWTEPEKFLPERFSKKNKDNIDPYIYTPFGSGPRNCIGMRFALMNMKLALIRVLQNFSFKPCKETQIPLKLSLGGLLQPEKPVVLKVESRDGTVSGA

[21] = Apparent volume of distribution in ICR mouse at 5 mg/kg, iv by HPLC-MS/MS analysis; assay type: ADME, organism-based; settings: in vivo, read-out: Vz
[22] = AUC (0 to infinity) in ICR mouse at 5 mg/kg, iv by HPLC-MS/MS analysis; assay type: ADME, organism-based; settings: in vivo
[23] = Tmax in ICR mouse at 5 mg/kg, iv by HPLC-MS/MS analysis; assay type: ADME, organism-based; settings: in vivo
[24] = Cmax in ICR mouse at 5 mg/kg, iv by HPLC-MS/MS analysis; assay type: ADME, organism-based; settings: in vivo
[25] = MRT (0 to t) in ICR mouse at 5 mg/kg, iv by HPLC-MS/MS analysis; assay type: ADME, organism-based; settings: in vivo
[26] = Clearance in ICR mouse at 100 mg/kg, po by HPLC-MS/MS analysis; assay type: ADME, organism-based; settings: in vivo
[27] = MRT (0 to infinity) in ICR mouse at 100 mg/kg, po by HPLC-MS/MS analysis; assay type: ADME, organism-based; settings: in vivo
[28] = Half life in ICR mouse at 5 mg/kg, iv by HPLC-MS/MS analysis; assay type: ADME, organism-based; settings: in vivo
[29] = Apparent volume of distribution in ICR mouse at 100 mg/kg, po by HPLC-MS/MS analysis; assay type: ADME, organism-based; settings: in vivo
[30] = tested on: Mus musculus; test: Anti-diabetic activity against 16 hrs fasted ICR mouse assessed as reduced blood glucose level at 150 mg/kg, po measured after 90 min by oral pyruvate tolerance test; assay type: functional, organism-based

In the case of `Cn1c(-c2cccc(NS(=O)(=O)c3ccc(Cl)cc3)c2)nc2ccccc21`, the inhibition [1] is reported as 0%.

For `O=S(=O)(Nc1cc(Cl)cc(-c2nc3ccccc3[nH]2)c1)c1ccc(Cl)cc1`, the inhibition [1] was 5.4%.

With `COc1ccc(S(=O)(=O)Nc2cccc(-c3nc4ccccc4n3C)c2)cc1` the inhibition [1] was 5.7%.

Compound `COc1ccc(S(=O)(=O)Nc2ccccc2-c2nc3ccccc3n2-c2ccc(Cl)cc2)cc1` has an inhibition [1] of 28.9%.

`O=c1cc(-c2ccccc2)oc2ccc3ccccc3c12` [BETA-NAPHTHOFLAVONE] gave an IC50 [2] of 0.148 µM.

With `COc1ccc(S(=O)(=O)NC(=O)c2cccc(-c3nc4ccccc4n3C)c2)cc1` the inhibition [1] was 5.7%.

For `COc1ccc(S(=O)(=O)Nc2ccccc2-c2nc3ccccc3n2C2CCCCC2)cc1`, the inhibition [1] was 17.3%.

For `O=S(=O)(Nc1ccccc1-c1nc2ccccc2n1-c1ccc(Cl)cc1)c1ccc(Cl)cc1`, the inhibition [1] was 28.9%.

`COc1ccc(S(=O)(=O)Nc2cccc(-c3nc4ccccc4n3C3CCCCC3)c2)cc1` showed an inhibition [1] of 47.4%.

With `O=S(=O)(Nc1cccc(-c2nc3ccccc3n2C2CCCCC2)c1)c1ccc(Cl)cc1` the inhibition [1] was 24.8%.

In the case of `COc1ccc(S(=O)(=O)NC(=O)c2cccc(-c3nc4ccccc4n3C(C)C)c2)cc1`, the inhibition [1] is reported as 0%.

With `COc1ccc(S(=O)(=O)Nc2ccccc2-c2nc3ccccc3n2-c2ccc(NC(C)=O)cc2)cc1` the inhibition [1] was 36.8%.

With `COc1ccc(S(=O)(=O)NC(=O)c2cccc(-c3nc4ccccc4[nH]3)c2)cc1` the inhibition [1] was 20.8%.

For `O=S(=O)(Nc1ccccc1-c1nc2ccccc2n1C1CCCCC1)c1ccc(Cl)cc1`, the inhibition [1] was 39.8%.

In the case of `S=C(SSC(=S)n1cccc1)n1cccc1`, the IC50 [3] is reported as 0.13 µM.

With `O=S(=O)(Nc1cccc(-c2nc3ccccc3n2-c2ccc(Cl)cc2)c1)c1ccc(Cl)cc1` the IC50 [4] was 8.04 µM and the inhibition [1] was 63.5%.

Work on `Cn1c(-c2cccc(C(=O)NS(=O)(=O)c3ccc(Cl)cc3)c2)nc2ccccc21` yielded an inhibition [1] of 4%.

With `O=S(=O)(Nc1ccccc1-c1nc2ccccc2n1Cc1ccc(Cl)cc1)c1ccc(Cl)cc1` the inhibition [1] was 10.2%.

For `CC(=O)Nc1ccc(-n2c(-c3ccccc3NS(=O)(=O)c3ccc(Cl)cc3)nc3ccccc32)cc1`, the inhibition [1] was 25%.

For `Nc1ncnc2c1ncn2[C@@H]1O[C@H](COP(=O)(O)O)[C@@H](O)[C@H]1O` [ADENOSINE PHOSPHATE], the IC50 [4] was 3.29 µM and the inhibition [1] was 81.3%.

Work on `COc1ccc(S(=O)(=O)Nc2ccccc2-c2nc3ccccc3n2Cc2ccc(Cl)cc2)cc1` yielded an inhibition [1] of 5.6%.

In the case of `COc1ccc(S(=O)(=O)NC(=O)c2cc(Cl)cc(-c3nc4ccccc4[nH]3)c2)cc1`, the IC50 [5] is reported as 1.31 µM, the IC50 [6] is reported as 20 µM and the MRT inf [7] is reported as 1.86 h. The IC50 [4] was 2.08 µM, the AUC(0-t) [8] was 19500 ng·h/mL and the IC50 [2] was 47.2 µM. For the same compound, the Cmax [9] was 7160 ng/mL, the Activity [10] was “Active” and the AUC(0-t) [11] was 15900 ng·h/mL. The half-life [12] was 1.29 h, the AUC(0-inf) [13] was 19500 ng·h/mL and the IC50 [14] was over 50 µM. For the same compound, the Tmax [15] was 0.25 h, the clearance [16] was 5.27 mL/min/kg and the MRT last [17] was 3 h. It also gave an inhibition [1] of 81.8%, a bioavailability [18] of 6.15% and an IC50 [19] of 36.8 µM. The IC50 [20] was 20 µM, the Vd [21] was 0.813 L/kg and the AUC(0-inf) [22] was 15900 ng·h/mL. For the same compound, the Tmax [23] was 1.98 min, the Cmax [24] was 33500 ng/mL and the MRT last [25] was 1.86 h. It also gave a CL/F [26] of 87 mL/min/kg, an MRT inf [27] of 3 h and a half-life [28] of 1.79 h. It also gave a Vz [29] of 9.799 L/kg.

With `O=S(=O)(Nc1cccc(-c2nc3ccccc3n2Cc2ccc(Cl)cc2)c1)c1ccc(Cl)cc1` the inhibition [1] was 16.2%.

`CC(C)=CCc1c(O)cc(O)c2c(=O)c(O)c(-c3ccc(O)c(O)c3)oc12` showed an IC50 [3] of 3.62 µM.

Compound `COc1ccccc1CNC(=O)N1C(=O)c2ccccc2S1(=O)=O` has an IC50 [3] of 1.7 µM.

With `COc1ccc(S(=O)(=O)Nc2cccc(-c3nc4ccccc4[nH]3)c2)cc1` the inhibition [1] was 0%.

`CC(=O)Nc1ccc(-n2c(-c3cccc(NS(=O)(=O)c4ccc(Cl)cc4)c3)nc3ccccc32)cc1` showed an inhibition [1] of 21.1%.

`COc1ccc(S(=O)(=O)Nc2cccc(-c3nc4ccccc4n3-c3ccc(Cl)cc3)c2)cc1` gave an IC50 [4] of 5.35 µM and an inhibition [1] of 52.6%.

In the case of `CC(C)n1c(-c2cccc(C(=O)NS(=O)(=O)c3ccc(Cl)cc3)c2)nc2ccccc21`, the inhibition [1] is reported as 0%.

`COc1ccc(S(=O)(=O)Nc2cccc(-c3nc4ccccc4n3Cc3ccc(Cl)cc3)c2)cc1` gave an inhibition [1] of 7.1%.

With `O=C(NS(=O)(=O)c1ccc(F)cc1)c1cc(Cl)cc(-c2nc3ccccc3[nH]2)c1` the IC50 [4] was 2.16 µM, the inhibition [1] was 96.3% and the Activity [30] was “Active”.

With `COc1ccc(S(=O)(=O)Nc2cccc(-c3nc4ccccc4n3C(C)C)c2)cc1` the inhibition [1] was 7.1%.

For `O=C(NS(=O)(=O)c1ccc(Cl)cc1)c1cc(Cl)cc(-c2nc3ccccc3[nH]2)c1`, the IC50 [4] was 1.4 µM, the inhibition [1] was 88.3% and the Activity [30] was “Active”.

For `O=C(NS(=O)(=O)c1ccc(F)cc1)c1ccccc1N1CCN(Cc2nc3ccccc3n2C2CCCCC2)CC1`, the inhibition [1] was 64.3%.

`COc1ccc(S(=O)(=O)Nc2cc(Cl)cc(-c3nc4ccccc4[nH]3)c2)cc1` gave an inhibition [1] of 18.2%.

Work on `COc1ccc(S(=O)(=O)Nc2cccc(-c3nc4ccccc4n3-c3ccc(NC(C)=O)cc3)c2)cc1` yielded an inhibition [1] of 36.8%.

In the case of `CC(C)n1c(-c2cccc(NS(=O)(=O)c3ccc(Cl)cc3)c2)nc2ccccc21`, the inhibition [1] is reported as 7.1%.

Work on `O=C(NS(=O)(=O)c1ccc(Cl)cc1)c1cccc(-c2nc3ccccc3[nH]2)c1` yielded an inhibition [1] of 0%.

`O=S(=O)(Nc1cccc(-c2nc3ccccc3[nH]2)c1)c1ccc(Cl)cc1` gave an inhibition [1] of 0%.
